Data reported in patent US20260083851A1 (AVILAR THERAPEUTICS, INC., priority 2022, published 2026).

target: T1, ASGP receptor (biotinylated ASGPR) (Homo sapiens, UniProt P07306); assay type: binding; settings: SPR, Biacore 8K, 25° C.; Table 1A; read-out: ASGPR KD
T1 construct: biotin (biotinylated)
T1 sequence (P07306 1-291): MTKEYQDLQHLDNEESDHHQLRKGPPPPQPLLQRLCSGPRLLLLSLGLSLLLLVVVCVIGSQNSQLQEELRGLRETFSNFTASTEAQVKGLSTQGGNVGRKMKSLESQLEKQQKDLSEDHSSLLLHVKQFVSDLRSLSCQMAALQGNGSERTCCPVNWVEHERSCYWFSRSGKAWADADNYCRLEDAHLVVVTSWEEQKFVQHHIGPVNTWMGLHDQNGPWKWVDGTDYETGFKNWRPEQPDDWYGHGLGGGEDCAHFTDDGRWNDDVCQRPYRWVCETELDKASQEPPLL

| Kd [µM] | Compound |
| --- | --- |
| < 10 | O[C@@H]1[C@H](O)[C@@H](Nc2cncc(C(F)(F)F)n2)CO[C@@H]1CN1CCN(Cc2ccccc2)CC1 [A9, (2R,3R,4R,5S)-2-((4-benzylpiperazin-1-yl)methyl)-5-((6-(trifluoromethyl)pyrazin-2-yl)amino)tetrahydro-2H-pyran-3,4-diol] |
| < 10 | OC[C@H]1NC[C@H](Nc2nccc(C(F)(F)F)n2)[C@@H](O)[C@H]1O [A117] |
| < 10 | O=C(NC[C@H]1OC[C@H](Nc2cncc(C(F)(F)F)n2)[C@@H](O)[C@H]1O)c1ccc(-c2ccccc2)cn1 [A67, N-(((2R,3R,4R,5S)-3,4-dihydroxy-5-((6-(trifluoromethyl)pyrazin-2-yl)amino)tetrahydro-2H-pyran-2-yl)methyl)-5-phenylpicolinamide] |
| < 10 | O=C(NC[C@H]1OC[C@H](Nc2cncc(C(F)(F)F)n2)[C@@H](O)[C@H]1O)c1ccncc1 [A80, N-(((2R,3R,4R,5S)-3,4-dihydroxy-5-((6-(trifluoromethyl)pyrazin-2-yl)amino)tetrahydro-2H-pyran-2-yl)methyl)isonicotinamide] |
| < 10 | O=C(O)CN1CCC(N2CCC(C(=O)NC[C@H]3OC[C@H](Nc4cncc(C(F)(F)F)n4)[C@@H](O)[C@H]3O)CC2)CC1 [A62, 2-(4-((((2R,3R,4R,5S)-3,4-dihydroxy-5-((6-(trifluoromethyl)pyrazin-2-yl)amino)tetrahydro-2H-pyran-2-yl)methyl)carbamoyl)-[1,4′-bipiperidin]-1′-yl)acetic acid] |
| < 10 | NC[C@H]1OC[C@H](Nc2nc(C(F)(F)F)ccc2F)[C@@H](O)[C@H]1O [A99, (2R,3R,4R,5S)-2-(aminomethyl)-5-((3-fluoro-6-(trifluoromethyl)pyridin-2-yl)amino)tetrahydro-2H-pyran-3,4-diol] |
| < 10 | O[C@@H]1[C@H](O)[C@@H](Nc2cncc(C(F)(F)F)n2)CO[C@@H]1CN1CCNCC1 [A91, (2R,3R,4R,5S)-2-(piperazin-1-ylmethyl)-5-((6-(trifluoromethyl)pyrazin-2-yl)amino)tetrahydro-2H-pyran-3,4-diol] |
| < 10 | OC[C@H]1OC[C@H](Nc2ccccc2)[C@@H](O)[C@H]1O [A108, (2R,3R,4R,5S)-2-(hydroxymethyl)-5-(phenylamino)tetrahydro-2H-pyran-3,4-diol] |
| < 10 | O=C(O)C1CCC(C(=O)NC[C@H]2OC[C@H](Nc3cncc(C(F)(F)F)n3)[C@@H](O)[C@H]2O)CC1 (stereo partly drawn) [A32, 4-((((2R,3R,4R,5S)-3,4-dihydroxy-5-((6-(trifluoromethyl)pyrazin-2-yl)amino)tetrahydro-2H-pyran-2-yl)methyl)carbamoyl)cyclohexane-1-carboxylic acid] |
| < 10 | O=C(NC[C@H]1OC[C@H](Nc2cncc(C(F)(F)F)n2)[C@@H](O)[C@H]1O)c1cnc[nH]1 [A22, N-(((2R,3R,4R,5S)-3,4-dihydroxy-5-((6-(trifluoromethyl)pyrazin-2-yl)amino)tetrahydro-2H-pyran-2-yl)methyl)-1H-imidazole-5-carboxamide] |
| < 10 | O=C(O)COCCOCC(=O)NC[C@H]1OC[C@H](Nc2ccnc(C(F)(F)F)c2)[C@@H](O)[C@H]1O [A107, 2-(2-(2-((((2R,3R,4R,5S)-3,4-dihydroxy-5-((2-(trifluoromethyl)pyridin-4-yl)amino)tetrahydro-2H-pyran-2-yl)methyl)amino)-2-oxoethoxy)ethoxy)acetic acid] |
| < 10 | O=C(NC[C@H]1OC[C@H](Nc2cncc(C(F)(F)F)n2)[C@@H](O)[C@H]1O)c1ccccc1 [A36, N-(((2R,3R,4R,5S)-3,4-dihydroxy-5-((6-(trifluoromethyl)pyrazin-2-yl)amino)tetrahydro-2H-pyran-2-yl)methyl)benzamide] |
| < 10 | O=C(O)c1ccc(C(=O)NC[C@H]2OC[C@H](Nc3cncc(C(F)(F)F)n3)[C@@H](O)[C@H]2O)cc1 [A34, 4-((((2R,3R,4R,5S)-3,4-dihydroxy-5-((6-(trifluoromethyl)pyrazin-2-yl)amino)tetrahydro-2H-pyran-2-yl)methyl)carbamoyl)benzoic acid] |

same assay, conditions: SPR, Biacore 8K, 25° C.; Table 1B; read-out: ASGPR Kd

| Kd [µM] | Compound |
| --- | --- |
| < 10 | O[C@@H]1[C@H](O)[C@@H](Nc2cncc(C(F)(F)F)n2)CO[C@@H]1CF [A162, (2S,3R,4R,5S)-2-(fluoromethyl)-5-((6-(trifluoromethyl)pyrazin-2-yl)amino)tetrahydro-2H-pyran-3,4-diol] |

same assay, conditions: SPR, Biacore 8K, 25° C.; Table 1C, numeric bound; read-out: ASGPR KD

| Kd [µM] | Compound |
| --- | --- |
| > 30 | OC[C@H]1OC[C@H](Nc2ncc3c(n2)CCC3)[C@@H](O)[C@H]1O [A182, (2R,3R,4R,5S)-5-((6,7-dihydro-5H-cyclopenta[d]pyrimidin-2-yl)amino)-2-(hydroxymethyl)tetrahydro-2H-pyran-3,4-diol] |
| > 30 | OC[C@H]1O[C@@H](c2ccccc2)[C@H](Oc2cccc(C(F)(F)F)n2)[C@@H](O)[C@H]1O [A208, (2R,3R,4S,5R,6S)-2-(hydroxymethyl)-6-phenyl-5-((6-(trifluoromethyl)pyridin-2-yl)oxy)tetrahydro-2H-pyran-3,4-diol] |

same assay, conditions: SPR, Biacore 8K, 25° C.; Table 1C; read-out: ASGPR KD

| Kd [µM] | Compound |
| --- | --- |
| < 10 | CC(=O)[C@H]1O[C@H](C)[C@H](O)[C@H](O)[C@H]1Oc1cccc(C(F)(F)F)n1 [A334] |
| < 10 | CC(O)[C@H]1O[C@H](C)[C@H](O)[C@H](O)[C@H]1Oc1cccc(C(F)(F)F)n1 (stereo partly shown) [A339] |
| < 10 | O[C@@H]1[C@H](O)[C@@H](Oc2cccc(C(F)(F)F)n2)CO[C@@H]1CSc1ccccn1 [A307] |
| < 10 | O[C@@H]1[C@H](O)[C@@H](Oc2cccc(C(F)(F)F)n2)CO[C@@H]1CN1CCN(c2ccc(Br)nn2)CC1 [A257] |
| < 10 | O[C@@H]1[C@H](O)[C@@H](Oc2cccc(C(F)(F)F)n2)CO[C@@H]1COc1ccnnc1 [A288] |
| < 10 | C[C@H]1O[C@H](c2ccc3c(c2)CCC3)[C@H](Oc2cccc(C(F)(F)F)n2)[C@@H](O)[C@H]1O [A340] |
| < 10 | CC(C)(C)OC(=O)N1CC2CN(C[C@H]3OC[C@H](Oc4cccc(C(F)(F)F)n4)[C@@H](O)[C@H]3O)CC21 (stereo partly shown) [A261] |
| < 10 | O[C@@H]1[C@H](O)[C@@H](Nc2cccc(C(F)(F)F)n2)CO[C@@H]1CN1CCc2ccccc2C1 [A268] |
| < 10 | O[C@@H]1[C@H](O)[C@@H](Oc2cccc(C(F)(F)F)n2)CO[C@@H]1COc1ccccc1 [A234, (2R,3R,4S,5S)-2-(phenoxymethyl)-5-((6-(trifluoromethyl)pyridin-2-yl)oxy)tetrahydro-2H-pyran-3,4-diol] |
| < 10 | O=C(O)c1ccc(N2CCN(C[C@H]3OC[C@H](Nc4cncc(C(F)(F)F)n4)[C@@H](O)[C@H]3O)CC2)nn1 [A207, 6-(4-(((2R,3R,4R,5S)-3,4-dihydroxy-5-((6-(trifluoromethyl)pyrazin-2-yl)amino)tetrahydro-2H-pyran-2-yl)methyl)piperazin-1-yl)pyridazine-3-carboxylic acid] |
| < 10 | O[C@@H]1[C@H](O)[C@@H](Oc2cccc(C(F)(F)F)n2)CO[C@@H]1CN1CCc2ccccc2C1 [A254] |
| < 10 | CC(C)(C)OC(=O)N1CCC(Cc2ccc(OC[C@H]3OC[C@H](Oc4cccc(C(F)(F)F)n4)[C@@H](O)[C@H]3O)nn2)C1 (stereo partly shown) [A294] |

same assay, conditions: SPR, Biacore 8K, 25° C.; Table 1D, numeric bound; read-out: ASGPR KD

| Kd [µM] | Compound |
| --- | --- |
| > 30 | O=C(OCc1ccccc1)N1C[C@H](Nc2ccc(C(F)(F)F)cn2)[C@@H](O)[C@@H](O)C1 [A374] |

same assay, conditions: SPR, Biacore 8K, 25° C.; Table 1D; read-out: ASGPR KD

| Kd [µM] | Compound |
| --- | --- |
| < 10 | CCN1C[C@H](O)[C@H](O)[C@@H](N(C)c2cncc(C(F)(F)F)n2)C1 [A366] |
| 10 to 100 | O[C@@H]1[C@@H](Nc2nccc(C(F)(F)F)n2)CNC[C@@H]1O [A370] |
| < 10 | OCC1CCN(c2ccc(N3C[C@H](Nc4cncc(C(F)(F)F)n4)[C@@H](O)[C@@H](O)C3)nn2)CC1 [A394] |
| < 10 | O[C@@H]1[C@@H](Oc2cccc(C(F)(F)F)n2)CN(c2noc(-c3ccccc3)n2)C[C@@H]1O [A353] |
| < 10 | O=C(OCc1ccccc1)N1C[C@H](Nc2nc(Cl)nn3cccc23)[C@@H](O)[C@@H](O)C1 [A380] |
| < 10 | O=C(c1ccc(Cc2ccccc2)cc1)N1C[C@H](Nc2cncc(C(F)(F)F)n2)[C@@H](O)[C@@H](O)C1 [A364] |
| < 10 | O=C(OCc1ccccc1)N1CC(c2ccc(OC[C@H]3OC[C@H](Nc4cncc(C(F)(F)F)n4)[C@@H](O)[C@H]3O)nn2)C1 [A410] |
| < 10 | O[C@@H]1[C@@H](Nc2cncc(C(F)(F)F)n2)CNC[C@@H]1O [A362] |
| 10 to 100 | CC(=O)N[C@H]1CN(C(=O)CCCCC(=O)OCc2ccccc2)C[C@H](O)[C@@H]1O [A407] |
| 10 to 100 | CN1C[C@H](Oc2cccc(C(F)(F)F)n2)[C@@H](O)[C@@H](O)C1 [A403] |

same assay, conditions: SPR, Biacore 8K, 25° C.; Table 1E; read-out: ASGPR KD

| Kd [µM] | Compound |
| --- | --- |
| < 10 | O=C(O)c1cnc(OC[C@@]23CO[C@@H](O2)[C@H](Nc2cncc(C(F)(F)F)n2)[C@@H](O)[C@H]3O)cn1 [A452] |
| < 10 | C[C@H]1O[C@H](COc2cnccn2)[C@H](Oc2cncc(C(F)(F)F)n2)[C@@H](O)[C@H]1O [A434] |
| < 10 | C[C@H]1O[C@H](C#N)[C@H](Oc2cccc(C(F)(F)F)n2)[C@@H](O)[C@H]1O [A432] |

same assay, conditions: SPR; Table 2; read-out: ASGPR SPR Binding KD

| Kd [µM] | Compound |
| --- | --- |
| < 0.1 | CC1(C)C(=O)c2ccc(-c3cnc(N4CCN5C(=O)N(CCOCCOCCOCC(=O)NC(COCCC(=O)NCCOCCOCCOCCOC[C@H]6OC[C@H](Nc7nccc(C(F)(F)F)n7)[C@@H](O)[C@H]6O)COCCC(=O)NCCOCCOCCOCCOC[C@H]6OC[C@H](Nc7nccc(C(F)(F)F)n7)[C@@H](O)[C@H]6O)C[C@@H]5C4)nc3)nc2N1Cc1cccnc1C#N [compound 22] |
